Measurements taken from the supplement of paper PMC10307832.

Key:
Assay in all cases: relative viability (nuclei count vs DMSO), 5 days (fraction); higher = more cells survive
[1] = compound: CS(=O)(=O)CCNCc1ccc(-c2ccc3ncnc(Nc4ccc(OCc5cccc(F)c5)c(Cl)c4)c3c2)o1 [Lapatinib]
Outline: (§1)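 On vehicle-anchored 1536-well plates, lung cancer cell lines held overnight at 37 °C were pinned with five library-drug doses (not always all listed) spaced by √10. With no medium change over 5 days, they were then fixed, permeabilised and Hoechst-stained in one step and imaged at 4×. MetaXpress counted nuclei, and viability is the median across plates of treated-well over vehicle-well nuclei. Acceptance needed control CV below 25% and at least one doubling.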

[2] = compound: CC1=NC=CC(=C1)C2=CC=C(C=C2)CC(=O)NC3=CC=C(C=C3)C4=CN=CC=C4 [Wnt-C59]
Outline: as §1

[3] = compound: CS(=O)(=O)CCNCc1ccc(-c2ccc3ncnc(Nc4ccc(OCc5cccc(F)c5)c(Cl)c4)c3c2)o1 [Lapatinib] + O=C(CCCCCCC(=O)Nc1ccccc1)NO [Vorinostat] (partner 1 µM)
Outline: (§2)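 Each reported value is a median over duplicate plates. It expresses relative viability: treated-well nuclei count divided by vehicle-well nuclei count. Lung cancer cell lines in 1536-well plates were dosed by pin tool a day after seeding, alone with one drug or with a fixed anchor-drug dose plus five library-drug doses (not always all listed) in √10 steps, and nuclei were counted after 5 days.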

[4] = compound: CC1=NC=CC(=C1)C2=CC=C(C=C2)CC(=O)NC3=CC=C(C=C3)C4=CN=CC=C4 [Wnt-C59] + CS(=O)(=O)CCNCc1ccc(-c2ccc3ncnc(Nc4ccc(OCc5cccc(F)c5)c(Cl)c4)c3c2)o1 [Lapatinib] (partner 2 µM)
Outline: as §2

LCLC-97TM1
relative viability ([1]; 0.2 µM): 1.08
relative viability ([1]; 0.6325 µM): 1
relative viability ([1]; 2 µM): 1.03
relative viability ([1]; 2 µM, anchor plate): 1.01
relative viability ([2]; 0.001 µM): 1.04
relative viability ([2]; 0.01 µM): 0.908
relative viability ([2]; 0.03162 µM): 1.07
relative viability ([2]; 0.1 µM): 1.06
relative viability ([3]; first compound 0.06325 µM): 0.316
relative viability ([3]; first compound 0.2 µM): 0.953
relative viability ([3]; first compound 0.6325 µM): 0.681
relative viability ([3]; first compound 2 µM): 0.687
relative viability ([4]; first compound 0.001 µM): 1.64
relative viability ([4]; first compound 0.01 µM): 0.603
relative viability ([4]; first compound 0.03162 µM): 1.07
relative viability ([4]; first compound 0.1 µM): 0.687

RERF-LC-KJ
relative viability ([1]; 0.02 µM): 0.992
relative viability ([1]; 0.06325 µM): 0.88
relative viability ([1]; 0.2 µM): 0.905
relative viability ([1]; 0.6325 µM): 0.826
relative viability ([1]; 2 µM): 0.737
relative viability ([1]; 2 µM, anchor plate): 0.861
relative viability ([2]; 0.001 µM): 1
relative viability ([2]; 0.01 µM): 0.978
relative viability ([2]; 0.03162 µM): 1.09
relative viability ([2]; 0.1 µM): 0.987
relative viability ([3]; first compound 0.02 µM): 0.543
relative viability ([3]; first compound 0.06325 µM): 0.632
relative viability ([3]; first compound 0.2 µM): 0.673
relative viability ([3]; first compound 0.6325 µM): 0.647
relative viability ([3]; first compound 2 µM): 0.601
relative viability ([4]; first compound 0.001 µM): 0.892
relative viability ([4]; first compound 0.01 µM): 0.836
relative viability ([4]; first compound 0.03162 µM): 0.925
relative viability ([4]; first compound 0.1 µM): 0.797

HCC-827
relative viability ([1]; 0.02 µM): 0.91
relative viability ([1]; 0.06325 µM): 0.983
relative viability ([1]; 0.2 µM): 1.05
relative viability ([1]; 0.6325 µM): 1
relative viability ([2]; 0.001 µM): 1.1
relative viability ([2]; 0.01 µM): 1.05
relative viability ([2]; 0.03162 µM): 1.02
relative viability ([2]; 0.1 µM): 1.06
relative viability ([3]; first compound 0.02 µM): 0.76
relative viability ([3]; first compound 0.06325 µM): 0.868
relative viability ([3]; first compound 0.2 µM): 0.706
relative viability ([3]; first compound 0.6325 µM): 0.802
relative viability ([3]; first compound 2 µM): 0.869
relative viability ([4]; first compound 0.001 µM): 0.188
relative viability ([4]; first compound 0.01 µM): 0.163
relative viability ([4]; first compound 0.03162 µM): 0.191
relative viability ([4]; first compound 0.1 µM): 0.203

SK-LU-1
relative viability ([1]; 0.02 µM): 0.799
relative viability ([1]; 0.06325 µM): 0.89
relative viability ([1]; 0.2 µM): 1.01
relative viability ([1]; 0.6325 µM): 1.11
relative viability ([1]; 2 µM): 1.03
relative viability ([1]; 2 µM, anchor plate): 0.85
relative viability ([2]; 0.001 µM): 1
relative viability ([2]; 0.01 µM): 0.987
relative viability ([2]; 0.03162 µM): 1.01
relative viability ([2]; 0.1 µM): 1.01
relative viability ([3]; first compound 0.02 µM): 0.681
relative viability ([3]; first compound 0.06325 µM): 0.747
relative viability ([3]; first compound 0.2 µM): 0.829
relative viability ([3]; first compound 0.6325 µM): 0.776
relative viability ([3]; first compound 2 µM): 0.802
relative viability ([4]; first compound 0.001 µM): 0.798
relative viability ([4]; first compound 0.01 µM): 0.789
relative viability ([4]; first compound 0.03162 µM): 0.915
relative viability ([4]; first compound 0.1 µM): 0.823

NCI-H1944
relative viability ([1]; 0.02 µM): 0.781
relative viability ([1]; 0.06325 µM): 0.658
relative viability ([1]; 0.2 µM): 0.964
relative viability ([1]; 0.6325 µM): 0.853
relative viability ([1]; 2 µM): 0.757
relative viability ([1]; 2 µM, anchor plate): 0.846
relative viability ([2]; 0.001 µM): 0.956
relative viability ([2]; 0.01 µM): 0.945
relative viability ([2]; 0.03162 µM): 1.07
relative viability ([2]; 0.1 µM): 1.01
relative viability ([3]; first compound 0.02 µM): 0.514
relative viability ([3]; first compound 0.06325 µM): 0.511
relative viability ([3]; first compound 0.2 µM): 0.461
relative viability ([3]; first compound 0.6325 µM): 0.459
relative viability ([3]; first compound 2 µM): 0.437
relative viability ([4]; first compound 0.001 µM): 0.745
relative viability ([4]; first compound 0.01 µM): 0.795
relative viability ([4]; first compound 0.03162 µM): 0.866
relative viability ([4]; first compound 0.1 µM): 0.769

COR-L 105
relative viability ([1]; 0.02 µM): 0.828
relative viability ([1]; 0.06325 µM): 0.8
relative viability ([1]; 0.2 µM): 0.857
relative viability ([1]; 0.6325 µM): 0.598
relative viability ([1]; 2 µM): 0.381
relative viability ([1]; 2 µM, anchor plate): 0.367
relative viability ([2]; 0.001 µM): 0.992
relative viability ([2]; 0.01 µM): 0.948
relative viability ([2]; 0.03162 µM): 0.94
relative viability ([2]; 0.1 µM): 0.921
relative viability ([3]; first compound 0.02 µM): 0.773
relative viability ([3]; first compound 0.06325 µM): 0.825
relative viability ([3]; first compound 0.2 µM): 0.779
relative viability ([3]; first compound 0.6325 µM): 0.42
relative viability ([3]; first compound 2 µM): 0.589
relative viability ([4]; first compound 0.001 µM): 0.342
relative viability ([4]; first compound 0.01 µM): 0.381
relative viability ([4]; first compound 0.03162 µM): 0.407
relative viability ([4]; first compound 0.1 µM): 0.358

HARA
relative viability ([1]; 0.02 µM): 0.52
relative viability ([1]; 0.06325 µM): 0.749
relative viability ([1]; 0.2 µM): 0.943
relative viability ([1]; 0.6325 µM): 0.93
relative viability ([1]; 2 µM): 0.755
relative viability ([1]; 2 µM, anchor plate): 0.77
relative viability ([2]; 0.001 µM): 0.952
relative viability ([2]; 0.01 µM): 0.874
relative viability ([2]; 0.03162 µM): 1.19
relative viability ([2]; 0.1 µM): 1.02
relative viability ([3]; first compound 0.06325 µM): 0.452
relative viability ([3]; first compound 0.2 µM): 0.443
relative viability ([3]; first compound 0.6325 µM): 0.467
relative viability ([3]; first compound 2 µM): 0.427
relative viability ([4]; first compound 0.001 µM): 0.649
relative viability ([4]; first compound 0.01 µM): 0.746
relative viability ([4]; first compound 0.03162 µM): 0.876
relative viability ([4]; first compound 0.1 µM): 0.751

NCI-H460
relative viability ([1]; 0.02 µM): 0.952
relative viability ([1]; 0.06325 µM): 0.984
relative viability ([1]; 0.2 µM): 0.969
relative viability ([1]; 0.6325 µM): 0.969
relative viability ([1]; 2 µM): 0.868
relative viability ([1]; 2 µM, anchor plate): 0.988
relative viability ([2]; 0.001 µM): 0.973
relative viability ([2]; 0.01 µM): 0.95
relative viability ([2]; 0.03162 µM): 1.02
relative viability ([2]; 0.1 µM): 0.957
relative viability ([3]; first compound 0.02 µM): 0.671
relative viability ([3]; first compound 0.06325 µM): 0.67
relative viability ([3]; first compound 0.2 µM): 0.815
relative viability ([3]; first compound 0.6325 µM): 0.715
relative viability ([3]; first compound 2 µM): 0.533
relative viability ([4]; first compound 0.001 µM): 0.863
relative viability ([4]; first compound 0.01 µM): 0.999
relative viability ([4]; first compound 0.03162 µM): 1.11
relative viability ([4]; first compound 0.1 µM): 0.889

NCI-H358
relative viability ([1]; 0.02 µM): 0.693
relative viability ([1]; 0.06325 µM): 0.478
relative viability ([1]; 0.2 µM): 0.611
relative viability ([1]; 0.6325 µM): 0.569
relative viability ([1]; 2 µM): 0.335
relative viability ([1]; 2 µM, anchor plate): 0.474
relative viability ([2]; 0.001 µM): 1.01
relative viability ([2]; 0.01 µM): 0.785
relative viability ([2]; 0.03162 µM): 0.957
relative viability ([2]; 0.1 µM): 0.975
relative viability ([3]; first compound 0.02 µM): 0.596
relative viability ([3]; first compound 0.06325 µM): 0.418
relative viability ([3]; first compound 0.2 µM): 0.511
relative viability ([3]; first compound 0.6325 µM): 0.362
relative viability ([3]; first compound 2 µM): 0.215
relative viability ([4]; first compound 0.001 µM): 0.44
relative viability ([4]; first compound 0.01 µM): 0.524
relative viability ([4]; first compound 0.03162 µM): 0.474
relative viability ([4]; first compound 0.1 µM): 0.456
